Measurements: patent US4264497A, “1,5-Benzothiazepine compounds” (Maruko Seiyaku Co., Ltd., priority 1978, dated 1981)
Structures can show the parent of a compound that is named as a salt.

Key:
Stress induced ulcer = test: Anti-ulcer activity, stress induced ulcer, mice; format: in vivo; settings: p.o., 5 mg/kg
Aspirin induced ulcer = test: Anti-ulcer activity, aspirin induced ulcer, rats; format: in vivo; settings: s.c., 5 mg/kg
[1] = tested on: Aspirin-Stress induced ulcer; test: Anti-ulcer activity, aspirin-stress induced ulcer, mice; format: in vivo; settings: s.c., 5 mg/kg
[2] = tested on: Pylorus Ligature induced ulcer; test: Anti-ulcer activity, pylorus ligature ulcer, rats; format: in vivo; settings: s.c., 20 mg/kg
Gastric secretion = Gastric secretion inhibitory activity, observed in the anti-ulcer test using aspirin; format: in vivo; settings: observed simultaneously in anti-ulcer test using aspirin (rats, s.c., 5 mg/kg)
Corediastasis = Corediastasis (side effect), intraperitoneal; format: in vivo
Stress ulcer = test: Anti-ulcer activity (Stress), relative to racemate; format: in vivo; settings: for Anti-ulcer Activity (Stress): relative, racemic mixture = 1
Desalivation = Desalivation activity (side effect), relative to racemate; format: in vivo; settings: for Desalivation Activity: relative, racemic mixture = 1, side effect
[3] = Acute toxicity LD50, oral, in mice; settings: mouse, in vivo, po
[4] = Acute toxicity LD50, intravenous, in mice; settings: mouse, in vivo, iv
Anticholinergic activity = Anticholinergic activity (relative to racemate); format: in vivo
mice [5] = test: Acute toxicity LD50, oral, in mice; settings: oral
mice [6] = test: Acute toxicity LD50, intravenous, in mice; settings: intravenous
[7] = tested on: Indomethacin induced ulcer; test: Anti-ulcer activity, indomethacin induced ulcer, rats; format: in vivo; settings: p.o.
ulcer = test: Anti-ulcer activity, overall statement; format: in vivo; settings: in words, vs Glycopyrrolate
mice [8] = test: Acute toxicity, overall comparison; format: in vivo; settings: in words, vs Glycopyrrolate

Row | Structure (SMILES) | Anti-ulcer Activity, % Inhibitory (Stress induced ulcer) [%] | Anti-ulcer Activity, % Inhibitory (Aspirin induced ulcer) [%] | Anti-ulcer Activity, % Inhibitory [1] [%] | Anti-ulcer Activity, % Inhibitory [2] [%] | Gastric secretion inhibitory activity, % Inhibitory (Gastric secretion) [%] | Anti-ulcer Activity (Stress) (Stress ulcer) | Desalivation Activity (Desalivation) | LD50 [3] [mg/kg] | LD50 [4] [mg/kg] | corediastasis ED20 (Corediastasis; in vivo, ip) [mg/kg] | further results
1 | CN1[C@@H]2CC[C@H]1CC(OC(=O)C(CO)c1ccccc1)C2 (some centres unmarked) [Compound C, Atropin Sulfate] | 82.3 | 79.3 | 48.0 | 13.0 | 70 |  |  |  |  |  | corediastasis ED20 (Corediastasis; intraperitoneal administration): 0.076 mg/kg
2 | CN1CCN(C[C@H]2C(=O)Nc3ccccc3S[C@H]2c2ccccc2)CC1 (relative stereo) [Racemic Mixture, (±)-cis-2,3-dihydro-3-[(4-methylpiperazinyl)methyl]-2-phenyl-1,5-benzothiazepin-4(5H)-one] |  |  |  |  |  | 1 | 1 | 650 | 65 |  | 
3 | CN1CCN(C[C@H]2C(=O)Nc3ccccc3S[C@H]2c2ccccc2)CC1 (single isomer, unassigned) [(-) Form, cis-(-)-2,3-dihydro-3-[(4-methylpiperazinyl)methyl]-2-phenyl-1,5-benzothiazepin-4(5H)-one] |  |  |  |  |  | 4 | 0.6 | 870 | 160 |  | anticholinergic activity relative to the corresponding racemate (Anticholinergic activity; (-) form vs racemate): 2 times; Anticholinergic Activity (Anticholinergic activity; relative, racemic mixture = 1): 2; anti-ulcer activity relative to the corresponding racemate (Stress ulcer; (-) form vs racemate): 4 times; desalivation activity as a side-effect, degree relative to racemate (Desalivation; (-) form vs racemate): about 1/2; acute toxicity by oral administration, degree relative to racemate (mice [5]; (-) form vs racemate): 3/4; acute toxicity by intravenous administration, degree relative to racemate (mice [6]; (-) form vs racemate): 2/5
4 | C[N+]1(C)CCC(OC(=O)C(O)(c2ccccc2)C2CCCC2)C1 (centres unmarked) [Compound B, Glycopyrrolate] | 81.9 | 100.0 | 47.6 | 100.0 | 90 |  |  |  |  | 0.037 | Anti-ulcer Activity, % Inhibitory ([7]; B: 20 mg/kg): 88.6%
5 | CN1CCN(C[C@H]2C(=O)Nc3ccccc3S[C@H]2c2ccccc2)CC1 (relative stereo) [Compound A] | 91.6 | 100.0 | 51.8 | 100.0 | 90 |  |  |  |  | 0.31 | Anti-ulcer Activity, % Inhibitory ([7]; A: 5 mg/kg): 99.0%; anti-ulcer activity compared with Glycopyrrolate (ulcer): equal or higher anti-ulcer activity; degree of acute toxicity compared with Glycopyrrolate (mice [8]): approximately the same degree of acute toxicity as Glycopyrrolate; LD50 (in mice), Oral (mice [5]; mice, test compounds A-C): 650 mg/kg; LD50 (in mice), Intravenous (mice [6]; mice, test compounds A-C): 65 mg/kg
